Like-named read-outs stand apart in the source and are kept apart here.
How the values were obtained:
HeLa = assay: Colony Forming Units (read-out 6 days), HeLa; type: cell-based, human; settings: colonies containing more than 30 cells, read-out: Colony Forming Units, score based on IC50, HeLa
Experimental: (§1) Appropriate numbers of cells (100-150 cells, dependent on the cell type) are being seeded out in 1 ml complete medium into 6-well plates and allowed to attach for 48 h. The compounds are added after 48 h in 500 μl solution. The concentrations are in the range of 0.001 μM-3 μM. Control plates receive the same volume of medium containing the appropriate amount of DMSO. The plates are incubated for 5-7 days at cell culture conditions and subsequently scored for growth of colonies (containing more than 30 cells) by using a microscope.

tumor cells [1] = assay: Hoechst 33342 nuclear staining (48 h read-out); type: cell-based
Method in brief: (§2)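 Adherent cells pre-spread 24 h before dosing, suspension cells dosed at seeding; compounds at 0.001 μM-10 μM final, 48 h at culture conditions. Hoechst 33342 (2-5 μg/ml) added for 30 min, then fluorescence microscopy scoring of apoptotic nuclear fraction and apoptosis-specific morphology, reported as scores A-D.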

[2] = Hoechst 33342 nuclear staining (48 h read-out); type: cell-based
Method in brief: as §2

tumor cells [3] = assay: MTS proliferation assay (72 h read-out); type: cell-based
Method in brief: (§3)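 Viability was read by MTS absorbance at 492 nm after 3 h with reagent. Before that, cells plated a day earlier at 1.5×10^3–10^4 per well had been incubated with test compound at final concentrations of 0.001–10 μM for 72 h; activity is given as category scores A–D.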

[4] = MTS proliferation assay (72 h read-out); type: cell-based; settings: MRC5 cells
Method in brief: as §3

tumor cells [5] = assay: Mitochondrial membrane potential, JC-1 (read-out 48 h); type: cell-based; settings: JC-1, 48 h
Method in brief: (§4)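 Tumor cells were treated with test compounds (adherent cells after 24 h of attachment, suspension cells immediately), medium holding up to 5% DMSO. After 48 h, JC-1 (2-5 μg/ml in added medium) was applied for 30 min. Fluorescence microscopy (FITC/TRITC filters) scored the fraction of cells with dissipated mitochondrial membrane potential as categories A-D.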

[6] = as above; type: cell-based; settings: PBL, JC-1, 48 h
Method in brief: as §4

H460 = assay: Colony Forming Units (read-out 6 days), H460; type: cell-based, human; settings: colonies containing more than 30 cells, read-out: Colony Forming Units, score based on IC50, H460
Experimental: as §1

[7] = Homo sapiens, HeLa cells, read-out: Hoechst 33342 nuclear staining EC50, HeLa
[8] = Homo sapiens, Jurkat cells, read-out: Hoechst 33342 nuclear staining EC50, Jurkat
[9] = Jily cells, read-out: Hoechst 33342 nuclear staining EC50, Jily
[10] = Homo sapiens, MRC5 cells, read-out: Hoechst 33342 nuclear staining EC50, MRC5
[11] = PBL, read-out: Hoechst 33342 nuclear staining EC50, PBL
[12] = Homo sapiens, HT-1080, HT1080 cells, read-out: MTS proliferation assay IC50, HT1080
[13] = Homo sapiens, HeLa cells, read-out: MTS proliferation assay IC50, HeLa
[14] = Homo sapiens, Jurkat cells, read-out: MTS proliferation assay IC50, Jurkat
[15] = Jily cells, read-out: MTS proliferation assay IC50, Jily
[16] = Homo sapiens, HeLa cells, read-out: Mitochondrial membrane potential (read-out 48 h) HeLa
[17] = Homo sapiens, Jurkat cells, read-out: Mitochondrial membrane potential (read-out 48 h) Jurkat
[18] = Homo sapiens, MCF7 cells, read-out: Mitochondrial membrane potential (read-out 48 h) MCF7
[19] = Jily cells, read-out: Mitochondrial membrane potential (read-out 48 h) Jily
[20] = HeLa cells, read-out: Hoechst 33342 nuclear staining EC50, HeLa
[21] = Jurkat cells, read-out: Hoechst 33342 nuclear staining EC50, Jurkat
[22] = MRC5 cells, read-out: Hoechst 33342 nuclear staining EC50, MRC5
[23] = HT1080 cells, read-out: MTS proliferation assay IC50, HT1080
[24] = HeLa cells, read-out: MTS proliferation assay IC50, HeLa
[25] = Jurkat cells, read-out: MTS proliferation assay IC50, Jurkat
[26] = HeLa cells, read-out: Mitochondrial membrane potential (read-out 48 h) HeLa
[27] = Jurkat cells, read-out: Mitochondrial membrane potential (read-out 48 h) Jurkat
[28] = MCF7 cells, read-out: Mitochondrial membrane potential (read-out 48 h) MCF7

CCOc1ccccc1C(=O)c1oc2ccc(Cl)cc2c1N [Example 2, 3-Amino-5-chloro-2-(2-ethoxybenzoyl)-benzofuran]
> 1000 nM: EC50 [2, 11] | EC50 [6]
10 to 100 nM: IC50 (HeLa; Homo sapiens, 144 h) | EC50 (tumor cells [1]; [7]) | EC50 (tumor cells [1]; [9]) | EC50 [2, 10] | IC50 (tumor cells [3]; [12]) | IC50 (tumor cells [3]; [13]) | IC50 (tumor cells [3]; [15]) | IC50 ([4]; Homo sapiens) | EC50 (tumor cells [5]; [16]) | EC50 (tumor cells [5]; [19]) | IC50 (H460; Homo sapiens, NCI-H460, 144 h)
< 10 nM: EC50 (tumor cells [1]; [8]) | IC50 (tumor cells [3]; [14]) | EC50 (tumor cells [5]; [17])
100 to 1000 nM: EC50 (tumor cells [5]; [18])

CCOc1ccc([N+](=O)[O-])cc1C(=O)c1oc2ccc(Cl)cc2c1N [Example 3, 3-Amino-5-chloro-2-(2-ethoxy-5-nitrobezoyl)-benzofuran]
< 10 nM: IC50 (HeLa; Homo sapiens, 144 h) | EC50 (tumor cells [1]; [7]) | EC50 (tumor cells [1]; [8]) | EC50 (tumor cells [1]; [9]) | EC50 [2, 10] | IC50 (tumor cells [3]; [12]) | IC50 (tumor cells [3]; [13]) | IC50 (tumor cells [3]; [14]) | IC50 (tumor cells [3]; [15]) | IC50 ([4]; Homo sapiens) | EC50 (tumor cells [5]; [16]) | EC50 (tumor cells [5]; [17]) | EC50 (tumor cells [5]; [19]) | IC50 (H460; Homo sapiens, NCI-H460, 144 h)
10 to 100 nM: EC50 (tumor cells [5]; [18])
> 1000 nM: EC50 [2, 11] | EC50 [6]

C=CCOc1ccc(OC)cc1C(=O)c1oc2ccc(Cl)cc2c1N [Example 4, 3-Amino-5-chloro-2-(2-allyloxy-5-methoxybenzoyl)-benzofuran]
10 to 100 nM: IC50 (HeLa; Homo sapiens, 144 h) | EC50 (tumor cells [1]; [7]) | EC50 (tumor cells [1]; [8]) | EC50 (tumor cells [1]; [9]) | EC50 [2, 10] | EC50 (tumor cells [5]; [16]) | EC50 (tumor cells [5]; [17]) | EC50 (tumor cells [5]; [18]) | EC50 (tumor cells [5]; [19]) | IC50 (H460; Homo sapiens, NCI-H460, 144 h)
> 1000 nM: EC50 [2, 11] | EC50 [6]

COCCOc1ccccc1C(=O)c1oc2ccc(Cl)cc2c1N [Example 6]
> 1000 nM: EC50 [2, 22] | EC50 [2, 11] | IC50 (tumor cells [3]; [23]) | IC50 [4] | EC50 [6]
100 to 1000 nM: IC50 (HeLa) | EC50 (tumor cells [1]; [20]) | EC50 (tumor cells [1]; [9]) | EC50 (tumor cells [1]; [21]) | IC50 (tumor cells [3]; [24]) | IC50 (tumor cells [3]; [15]) | IC50 (tumor cells [3]; [25]) | EC50 (tumor cells [5]; [26]) | EC50 (tumor cells [5]; [19]) | EC50 (tumor cells [5]; [27]) | EC50 (tumor cells [5]; [28]) | IC50 (H460)

C#CCOc1ccccc1C(=O)c1oc2ccc(Cl)cc2c1N [Example 8]
10 to 100 nM: EC50 (tumor cells [1]; [21]) | IC50 (tumor cells [3]; [15]) | IC50 (tumor cells [3]; [25])
> 1000 nM: EC50 [2, 22] | EC50 [2, 11] | EC50 [6]
100 to 1000 nM: IC50 (HeLa) | EC50 (tumor cells [1]; [20]) | EC50 (tumor cells [1]; [9]) | IC50 (tumor cells [3]; [23]) | IC50 (tumor cells [3]; [24]) | IC50 [4] | EC50 (tumor cells [5]; [26]) | EC50 (tumor cells [5]; [19]) | EC50 (tumor cells [5]; [27]) | EC50 (tumor cells [5]; [28]) | IC50 (H460)

C#CCOc1ccc(OC)cc1C(=O)c1oc2ccc(Cl)cc2c1N [Example 13]
100 to 1000 nM: IC50 (HeLa) | EC50 (tumor cells [1]; [20]) | EC50 (tumor cells [1]; [9]) | EC50 (tumor cells [1]; [21]) | EC50 [2, 22] | IC50 (tumor cells [3]; [23]) | IC50 (tumor cells [3]; [24]) | IC50 [4] | EC50 (tumor cells [5]; [26]) | EC50 (tumor cells [5]; [19]) | EC50 (tumor cells [5]; [27]) | EC50 (tumor cells [5]; [28]) | IC50 (H460)
> 1000 nM: EC50 [6]
10 to 100 nM: IC50 (tumor cells [3]; [15]) | IC50 (tumor cells [3]; [25])

Nc1c(C(=O)c2cccnc2N2CCOCC2)oc2ccc(Cl)cc12 [Example 37, 3-Amino-5-chloro-2-(2-morpholino-3-pyridylcarbonyl)-benzofuran]
100 to 1000 nM: EC50 (tumor cells [5]; [16])
10 to 100 nM: IC50 (HeLa; Homo sapiens, 144 h) | EC50 (tumor cells [1]; [7]) | EC50 (tumor cells [1]; [8]) | EC50 (tumor cells [1]; [9]) | IC50 (tumor cells [3]; [12]) | IC50 (tumor cells [3]; [13]) | IC50 (tumor cells [3]; [15]) | IC50 ([4]; Homo sapiens) | EC50 (tumor cells [5]; [17]) | EC50 (tumor cells [5]; [19]) | IC50 (H460; Homo sapiens, NCI-H460, 144 h)
> 1000 nM: EC50 [2, 10] | EC50 [2, 11] | EC50 (tumor cells [5]; [18]) | EC50 [6]
< 10 nM: IC50 (tumor cells [3]; [14])

COc1ccc2oc(C(=O)c3cc(F)ccc3N3CCOCC3)cc2c1 [Example 38, 2-(5-Fluoro-2-morpholinobenzoyl)-5-methoxybenzofuran]
< 10 nM: IC50 (HeLa; Homo sapiens, 144 h) | EC50 (tumor cells [1]; [8]) | EC50 (tumor cells [1]; [9]) | IC50 (H460; Homo sapiens, NCI-H460, 144 h)
> 1000 nM: EC50 [2, 11] | EC50 [6]
10 to 100 nM: EC50 (tumor cells [1]; [7]) | EC50 [2, 10] | IC50 (tumor cells [3]; [12]) | IC50 (tumor cells [3]; [13]) | IC50 (tumor cells [3]; [14]) | IC50 (tumor cells [3]; [15]) | IC50 ([4]; Homo sapiens) | EC50 (tumor cells [5]; [16]) | EC50 (tumor cells [5]; [17]) | EC50 (tumor cells [5]; [18]) | EC50 (tumor cells [5]; [19])

CCOc1ccc(F)cc1C(=O)c1oc2ccc(OC)cc2c1N [Example 48]
10 to 100 nM: IC50 (HeLa) | EC50 (tumor cells [5]; [26]) | EC50 (tumor cells [5]; [28])
100 to 1000 nM: EC50 [6]
> 1000 nM: EC50 [2, 11]
< 10 nM: EC50 (tumor cells [1]; [20]) | EC50 (tumor cells [1]; [9]) | EC50 (tumor cells [1]; [21]) | EC50 [2, 22] | IC50 (tumor cells [3]; [23]) | IC50 (tumor cells [3]; [24]) | IC50 (tumor cells [3]; [15]) | IC50 (tumor cells [3]; [25]) | IC50 [4] | EC50 (tumor cells [5]; [19]) | EC50 (tumor cells [5]; [27]) | IC50 (H460)

COc1ccc2oc(C(=O)c3cc(F)ccc3N3CCCCC3)cc2c1 [Example 96]
> 1000 nM: EC50 [2, 11] | EC50 [6]
10 to 100 nM: IC50 (HeLa) | EC50 (tumor cells [5]; [26]) | EC50 (tumor cells [5]; [19]) | EC50 (tumor cells [5]; [27]) | EC50 (tumor cells [5]; [28]) | IC50 (H460)
100 to 1000 nM: EC50 (tumor cells [1]; [20]) | EC50 (tumor cells [1]; [9]) | EC50 (tumor cells [1]; [21]) | EC50 [2, 22]

Reference: patent publication US8486996B2, “Aroylfuranes and aroylthiophenes” (Basilea Pharmaceutica AG, priority 2006, dated 2013)
